From PubChem BioAssay (NCI)
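All cell lines were grown in 96-well plates and treated with compound for 48 hours. TGI denotes the concentration required for complete inhibition of growth.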

Columns and labels:
Experiment in all cases: growth of human tumour cells (NCI), 48 h
[1] = tested on: UACC-257 melanoma
[2] = tested on: RXF 393 renal
[3] = tested on: UO-31 renal
[4] = tested on: NCI-H23 lung
[5] = tested on: HCT-116 colon
[6] = tested on: CAKI-1 renal
[7] = tested on: HOP-62 NSCLC
[8] = tested on: NCI/ADR-RES ovarian
[9] = tested on: 786-0 renal
[10] = tested on: OVCAR-8 ovarian
[11] = tested on: HCC-2998 colon
[12] = tested on: SK-MEL-2 melanoma
[13] = tested on: SF-268 CNS
[14] = tested on: LOX IMVI melanoma
[15] = tested on: OVCAR-3 ovarian
[16] = tested on: NCI-H226 lung
[17] = tested on: A549 NSCLC
[18] = tested on: MOLT-4 leukemia
[19] = tested on: K-562 leukemia

Structure (SMILES)	TGI [1]	TGI [2]	TGI [3]	TGI [4]	TGI [5]	TGI [6]	TGI [7]	TGI [8]	TGI [9]	TGI [10]	TGI [11]	TGI [12]	TGI [13]	TGI [14]	TGI [15]	TGI [16]	TGI [17]	TGI [18]	TGI [19]
CC(C)/C(Cl)=N/OC(=O)Nc1cccc(C(F)(F)F)c1	29.5 µM	18.9 µM	22.9 µM	31.3 µM	24.7 µM	3.14 µM	32.1 µM	16.7 µM	7.52 µM	31.8 µM	30 µM	32.5 µM	> 64.9 µM	6.43 µM	8.12 µM	30.7 µM	39.1 µM	4.42 µM	
CN(C)CC1CCCC(CN2CCCCC2)C1=O (configuration not stated)	30.8 µM	26.6 µM	26.7 µM	35.8 µM	7.53 µM	3.73 µM	> 100 µM	14.6 µM	6.07 µM	31.5 µM	33.4 µM	31.1 µM	40.2 µM	18.3 µM	17.1 µM	43.1 µM	> 76.4 µM	12.5 µM	
O=C(Nc1cc2c(=O)[nH]c3ccccc3c2oc1=O)c1cnccn1	> 100 µM	> 100 µM	> 100 µM	> 100 µM	> 100 µM	> 100 µM		> 100 µM	> 100 µM	> 100 µM	> 100 µM	> 100 µM		> 100 µM	> 100 µM	> 100 µM	> 100 µM	> 100 µM	> 100 µM
CC1=CC=C2c3ccccc3C=CN2C(=O)C1	> 100 µM		> 100 µM	> 100 µM	> 100 µM	> 100 µM	> 100 µM	> 100 µM	> 100 µM	> 100 µM	> 100 µM	> 100 µM	> 100 µM	> 100 µM	> 100 µM	> 100 µM	> 100 µM	> 100 µM	> 100 µM
O=C1C=CC(=O)c2c1cc([N+](=O)[O-])c1ccoc21	32.4 µM	3.75 µM	8.09 µM	46.2 µM	12.5 µM	3.54 µM	31.8 µM	> 70.8 µM	3.35 µM	> 72.3 µM	41.6 µM	35.9 µM	> 65.1 µM	> 44.5 µM	70.2 µM	> 62.7 µM	40.9 µM		> 100 µM
O=c1[nH]c(=O)n(C2OC(CO)C(O)C2O)c2ncc(-c3ccc(-c4ccccc4)cc3)nc12 (configuration not stated)	> 20 µM	> 20 µM	> 20 µM	> 20 µM	> 20 µM	> 20 µM	> 20 µM	> 20 µM	> 20 µM	> 20 µM	> 20 µM	> 20 µM	> 20 µM	> 20 µM		> 20 µM	> 20 µM	> 20 µM	> 20 µM
